Where two headings read alike, the source gives them in different places.
Experiments:
[1] = 0.1% w/v drug, HFA134a
[2] = Andersen Cascade Impactor (ACI) deposition studies of HFA solution pMDIs; assay type: physicochemical
Procedure: All impaction studies were conducted with formulations contained in cut edge anodised aluminium cans fitted with 50 μl or 100 μl valves. The studies were carried out using an Andersen Cascade Impactor (ACI) fitted with a USP XXII metal throat entry port. The ACI was operated at a flow rate of 28.3±2 l min^−1. All solution HFA formulations were discharged into the ACI through an actuator having an orifice diameter of 0.22 mm. Deposition of the drug on each ACI plate was determined by high pressure liquid chromatography (HPLC). MMAD values and corresponding geometric standard deviations (GSD) were calculated from plots of the cumulative percentage undersize of drug collected on each ACI plate (probit scale), against the upper cut off diameter for each respective ACI plate (log 10 scale).

[3] = intranasal aqueous solution with dimethyl-β-cyclodextrin, compared to the IV route; cited from earlier work
[4] = porous particles, Andersen cascade Impaction; cited from earlier work
[5] = transdermal patches; cited from earlier work
[6] = cited from earlier work
[7] = 0.1% w/v (50 μg/dose), 5% w/w ethanol, 0.1% w/w glycerol, HFA134a, ten shots

With C[C@]12CC[C@@H]3c4ccc(OC(=O)c5ccccc5)cc4CC[C@H]3[C@@H]1CC[C@@H]2O [Formulation 3-Benzoate] the Solubility ([1]; 13% w/w ethanol, no glycerol) was “Insoluble”.

In the case of CCCCCCC(=O)O[C@H]1CC[C@H]2[C@@H]3CCc4cc(O)ccc4[C@H]3CC[C@]12C [Formulation 17-Enanthate, β-oestradiol enanthate], the GSD [2, 7] is reported as 1.7, the MMAD [2, 7] is reported as 1.5 μm and the “fine particle dose (FPD)” value [2, 7] is reported as 38.8 µg. The “fine particle fraction (FPF)” value [2, 7] was 78.5%.

In the case of C[C@]12CC[C@@H]3c4ccc(O)cc4CC[C@H]3[C@@H]1CC[C@@H]2OC(=O)CCC1CCCC1 [Formulation 17-Cypionate], the Solubility ([1]; 5% w/w ethanol, 0.1% w/w glycerol) is reported as “Insoluble”.

Work on “β-oestradiol-3,17-dipropionate [β-oestradiol 3,17-dipropionate]” yielded an MMAD ([2]; 200 μg/dose (0.4% w/v), 0% w/w ethanol, HFA 134a) of 0.90 μm, an MMAD ([2]; 200 μg/dose (0.4% w/v), 2% w/w ethanol, HFA 134a) of 1.50 μm and an MMAD ([2]; 200 μg/dose (0.4% w/v), 5% w/w ethanol, HFA 134a) of 1.50 μm. The MMAD ([2]; 500 μg/dose (1% w/v), 5% w/w ethanol, HFA 134a) was 1.90 μm.

In the case of 17β-Oestradiol, the bioavailability [3] is given as “approximately 65%”, the fine particle fraction [4] is given as “approximately 33%” and the “mean serum oestradiol levels” value [5] is given as 70 to 90 pg/mL. For the same compound, the peak plasma concentration ([6]; sublingual, 0.25 mg) was 294 pg/mL, the peak plasma concentration ([6]; sublingual, 0.5 mg) was 245 pg/mL and the peak plasma concentration ([6]; sublingual, 1.0 mg) was 451 pg/mL. For the same compound, the “time to peak plasma concentration” value ([6]; sublingual, 0.25, 0.5 and 1.0 mg) was no more than 1 h and the 17β-oestradiol levels ([6]; sublingual, after 6 hours) was “less than 60 pg/ml”.
